# According to US20250059188A1, “ARYLSULPHONAMIDE COMPOUNDS” (Anaxis Pharma Pty Ltd, priority 2021, published 2025):
# Tests used:
# Settings in all cases: equilibrium dissociation constant
# [1] = molecular target: human MLKL (full length) (Homo sapiens (Human), UniProt Q8NB16); test: KINOMEscan binding assay, human MLKL (full length)
# Procedure: (§1) Binding affinity of the test compounds for human MLKL (full length), mouse MLKL (full length), human RIPK1 and human RIPK3 was determined using the KINOMEscan™ technology developed by DiscoverX (USA; http://www.discoverx.com). The assay was conducted according to manufacturer instructions.
# (§2) Kinase assays. For most assays, kinase-tagged T7 phage strains were grown in parallel in 24-well blocks in an E. coli host derived from the BL21 strain. E. coli were grown to log-phase and infected with T7 phage from a frozen stock (multiplicity of infection=0.4) and incubated with shaking at 32° C. until lysis (90-150 minutes). The lysates were centrifuged (6,000×g) and filtered (0.2 μm) to remove cell debris. The remaining kinases were produced in HEK-293 cells and subsequently tagged with DNA for qPCR detection. […] The liganded beads were blocked with excess biotin and washed with blocking buffer (SeaBlock (Pierce), 1% BSA, 0.05% Tween 20, 1 mM DTT) to remove unbound ligand and to reduce non-specific phage binding. […] All reactions were performed in polypropylene 384-well plates in a final volume of 20 μL. […] The kinase concentration in the eluates was measured by qPCR.
# (§3) An 11-point 3-fold serial dilution of each test compound was prepared in 100% DMSO at 100× final test concentration and subsequently diluted to 1× in the assay (final DMSO concentration=1%). Most Kos were determined using a compound top concentration=30,000 nM.
# (§4) KD for each test compound was calculated with a standard dose-response curve using the Hill equation (equation (1)): […]
# (§5) The Hill Slope was set to −1.
# (§6) Curves were fitted using a non-linear least square fit with the Levenberg-Marquardt algorithm.
# [2] = molecular target: human RIPK1 (Homo sapiens (Human), UniProt Q13546); test: KINOMEscan binding assay, human RIPK1
# Sequence of human RIPK1 (Q13546 whole entry): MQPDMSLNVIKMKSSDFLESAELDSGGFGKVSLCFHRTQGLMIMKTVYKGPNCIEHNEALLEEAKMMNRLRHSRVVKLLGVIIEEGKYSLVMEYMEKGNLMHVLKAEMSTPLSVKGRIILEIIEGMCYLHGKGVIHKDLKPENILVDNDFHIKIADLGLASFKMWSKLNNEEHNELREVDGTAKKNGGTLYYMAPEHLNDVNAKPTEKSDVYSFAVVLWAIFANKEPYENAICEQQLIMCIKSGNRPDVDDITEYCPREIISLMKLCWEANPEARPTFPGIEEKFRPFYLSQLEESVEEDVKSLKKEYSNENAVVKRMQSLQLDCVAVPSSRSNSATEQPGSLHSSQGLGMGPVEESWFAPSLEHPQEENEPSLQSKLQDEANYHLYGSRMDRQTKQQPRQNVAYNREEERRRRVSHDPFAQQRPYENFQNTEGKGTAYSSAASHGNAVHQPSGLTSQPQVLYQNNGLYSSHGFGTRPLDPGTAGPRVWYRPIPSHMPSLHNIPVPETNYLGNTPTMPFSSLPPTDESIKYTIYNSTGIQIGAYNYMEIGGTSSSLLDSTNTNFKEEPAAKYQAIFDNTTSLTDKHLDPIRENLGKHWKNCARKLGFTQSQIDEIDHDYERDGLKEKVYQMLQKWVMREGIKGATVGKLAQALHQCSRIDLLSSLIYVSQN
# Procedure: as §1, §2, §3, §4, §5, §6
# [3] = molecular target: human RIPK3 (Homo sapiens (Human), UniProt Q9Y572); test: KINOMEscan binding assay, human RIPK3
# Sequence of human RIPK3 (Q9Y572 whole entry): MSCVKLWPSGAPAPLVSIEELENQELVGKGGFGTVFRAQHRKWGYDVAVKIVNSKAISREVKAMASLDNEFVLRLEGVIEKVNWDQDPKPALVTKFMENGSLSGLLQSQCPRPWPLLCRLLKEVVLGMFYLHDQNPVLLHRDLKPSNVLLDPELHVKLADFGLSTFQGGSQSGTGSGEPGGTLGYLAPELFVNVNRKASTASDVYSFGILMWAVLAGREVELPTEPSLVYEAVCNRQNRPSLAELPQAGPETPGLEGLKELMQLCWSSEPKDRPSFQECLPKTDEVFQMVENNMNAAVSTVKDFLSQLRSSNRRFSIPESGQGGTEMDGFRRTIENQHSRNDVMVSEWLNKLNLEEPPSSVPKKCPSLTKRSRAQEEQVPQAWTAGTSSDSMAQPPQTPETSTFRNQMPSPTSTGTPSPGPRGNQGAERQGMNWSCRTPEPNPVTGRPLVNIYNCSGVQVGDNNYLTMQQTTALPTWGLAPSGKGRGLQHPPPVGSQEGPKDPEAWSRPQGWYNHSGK
# Procedure: as §1, §2, §3, §4, §5, §6
# Sequence of human MLKL (full length) (Q8NB16 whole entry): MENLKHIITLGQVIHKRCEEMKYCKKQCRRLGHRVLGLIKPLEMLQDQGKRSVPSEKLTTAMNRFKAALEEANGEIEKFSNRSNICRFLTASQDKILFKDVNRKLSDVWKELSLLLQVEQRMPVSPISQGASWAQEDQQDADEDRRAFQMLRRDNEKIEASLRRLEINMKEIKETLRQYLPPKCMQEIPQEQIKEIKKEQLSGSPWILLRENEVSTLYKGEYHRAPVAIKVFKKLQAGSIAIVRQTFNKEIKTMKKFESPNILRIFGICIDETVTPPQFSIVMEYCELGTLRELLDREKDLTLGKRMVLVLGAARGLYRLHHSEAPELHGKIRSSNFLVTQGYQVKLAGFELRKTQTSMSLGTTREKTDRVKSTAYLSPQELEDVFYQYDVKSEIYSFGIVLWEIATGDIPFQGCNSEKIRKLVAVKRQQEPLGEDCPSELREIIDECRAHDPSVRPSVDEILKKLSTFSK
Kd [1] [µM],Kd [2] [µM],Kd [3] [µM],SMILES
0.001 to 0.1,> 10,> 10,"CCS(=O)(=O)Nc1ccc(-c2nn(C)c3c(NC(C)=O)cnc(N)c23)cc1OCc1ccc(F)cc1 [Compound 2, N-(4-amino-3-(4-(ethylsulfonamido)-3-((4-fluorobenzyl)oxy)phenyl)-1-methyl-1H-pyrazolo[4,3-c]pyridin-7-yl)acetamide]"
0.001 to 0.1,> 10,> 10,"CCS(=O)(=O)Nc1ccc(-c2coc3c(-c4cnn(CCO)c4)cnc(N)c23)cc1OCc1ccc(F)cc1 [Compound 4, N-(4-(4-amino-7-(1-(2-hydroxyethyl)-1H-pyrazol-4-yl)furo[3,2-c]pyridin-3-yl)-2-((4-fluorobenzyl)oxy)phenyl)ethanesulfonamide]"
< 0.001,> 10,> 10,"Nc1ncc(-c2cnn(CCO)c2)c2occ(-c3ccc(NS(=O)(=O)C(F)F)c(OCc4ccc(F)cc4)c3)c12 [Compound 6, N-(4-(4-amino-7-(1-(2-hydroxyethyl)-1H-pyrazol-4-yl)furo[3,2-c]pyridin-3-yl)-2-((4-fluorobenzyl)oxy)phenyl)-1,1-difluoromethanesulfonamide]"
0.001 to 0.1,> 10,> 10,"Cn1nc(-c2ccc(NS(=O)(=O)C(F)F)c(OCc3ccc(F)cc3)c2)c2c(N)nccc21 [Compound 10, N-(4-{4-amino-1-methyl-1H-pyrazolo[4,3-c]pyridin-3-yl}-2-[(4-fluorophenyl)methoxy]phenyl)-1,1-difluoromethanesulfonamide]"
< 0.001,> 10,> 10,"C[C@H](Oc1cc(-c2nn(C)c3ccnc(N)c23)ccc1NS(=O)(=O)C(F)F)c1ccc(F)cc1 [Compound 17, N-(4-{4-amino-1-methyl-1Hpyrazolo[4,3-c]pyridin-3-yl}-2-[(1S)-1-(4-fluorophenyl)ethoxy]phenyl)-1,1-difluoromethanesulfonamide]"
< 0.001,> 10,> 10,"C[C@H](Oc1cc(-c2cnn3ccnc(N)c23)ccc1NS(=O)(=O)C(F)F)c1ccc(F)cc1 [Compound 22, (S)—N-(4-(4-aminopyrazolo[1,5-a]pyrazin-3-yl)-2-(1-(4-fluorophenyl)ethoxy)phenyl)-1,1-difluoromethanesulfonamide]"
0.001 to 0.1,> 10,> 10,"Cc1noc(C)c1-c1cnc(N)c2c(-c3ccc(NS(=O)(=O)C(F)F)c(O[C@@H](C)c4ccc(F)cc4)c3)nn(C)c12 [Compound 33, (S)-N-(4-(4-amino-7-(3,5-dimethylisoxazol-4-yl)-1-methyl-1H-pyrazolo[4,3-c]pyridin-3-yl)-2-(1-(4-fluorophenyl)ethoxy)phenyl)-1,1-difluoromethanesulfonamide]"
0.001 to 0.1,> 10,> 10,"C[C@H](Oc1cc(-c2nn(C)c3c(Cc4ccccc4)cnc(N)c23)ccc1NS(=O)(=O)C(F)F)c1ccc(F)cc1 [Compound 34, (S)-N-(4-(4-amino-7-benzyl-1-methyl-1H-pyrazolo[4,3-c]pyridin-3-yl)-2-(1-(4-fluorophenyl)ethoxy)phenyl)-1,1-difluoromethanesulfonamide]"
0.001 to 0.1,> 10,> 10,"C[C@H](Oc1cc(-c2nn(C)c3c(-c4ccnc(N(C)C)c4)cnc(N)c23)ccc1NS(=O)(=O)C(F)F)c1ccc(F)cc1 [Compound 49, (S)-N-(4-(4-amino-7-(2-(dimethylamino)pyridin-4-yl)-1-methyl-1H-pyrazolo[4,3-c]pyridin-3-yl)-2-(1-(4-fluorophenyl)ethoxy)phenyl)-1,1-difluoromethanesulfonamide]"
0.001 to 0.1,> 10,> 10,"C[C@H](Oc1cc(-c2nn(C)c3c(C4=CCCNC4)cnc(N)c23)ccc1NS(=O)(=O)C(F)F)c1ccc(F)cc1 [Compound 54, (S)—N-(4-(4-amino-1-methyl-7-(1,2,5,6-tetrahydropyridin-3-yl)-1H-pyrazolo[4,3-c]pyridin-3-yl)-2-(1-(4-fluorophenyl)ethoxy)phenyl)-1,1-difluoromethanesulfonamide]"
0.1 to 10,> 10,> 10,"CCS(=O)(=O)Nc1ccc(-c2ncn3ccnc(N)c23)cc1OCc1ccc(F)cc1 [Compound 63, N-(4-(8-Aminoimidazo[1,5-a]pyrazin-1-yl)-2-((4-fluorophenyl)methoxy)phenyl) ethane-1-sulfonamide]"
0.1 to 10,> 10,> 10,"CCS(=O)(=O)Nc1ccc(-c2cnn3ccnc(N)c23)cc1OCc1ccc(F)cc1 [Compound 64, N-(4-(4-Aminopyrazolo[1,5-a]pyrazin-3-yl)-2-((4-fluorophenyl)methoxy)phenyl)ethane-1-sulfonamide]"
0.001 to 0.1,> 10,> 10,"Nc1n[nH]c2ccnc(-c3ccc(NS(=O)(=O)CC(F)(F)F)c(OCc4ccc(F)cc4)c3)c12 [Compound 65, N-(4-(3-amino-1H-pyrazolo[4,3-c]pyridin-4-yl)-2-((4-fluorophenyl)methoxy)phenyl)-2,2,2-trifluoroethane-1-sulfonamide]"
< 0.001,> 10,> 10,"Nc1n[nH]c2nccc(-c3ccc(NS(=O)(=O)CC(F)(F)F)c(OCc4ccc(F)cc4)c3)c12 [Compound 67, N-(4-(3-Amino-1H-pyrazolo[3,4-b]pyridin-4-yl)-2-((4-fluorophenyl)methoxy)phenyl)-2,2,2-trifluoroethane-1-sulfonamide]"
0.1 to 10,> 10,> 10,"Nc1n[nH]c2ccnc(-c3ccc(NS(=O)(=O)C(F)F)c(OCc4ccc(F)cc4)c3)c12 [Compound 68, N-(4-(3-amino-1H-pyrazolo[4,3-c]pyridin-4-yl)-2-((4-fluorophenyl)methoxy)phenyl)-1,1-difluoromethanesulfonamide]"
0.001 to 0.1,> 10,> 10,"C[C@H](Oc1cc(-c2nn(C)c3c(-c4cnn5c4CNCC5)cnc(N)c23)ccc1NS(=O)(=O)C(F)F)c1ccc(F)cc1 [Compound 90, (S)-N-(4-(4-amino-1-methyl-7-(4,5,6,7-tetrahydropyrazolo[1,5-a]pyrazin-3-yl)-1H-pyrazolo[4,3-c]pyridin-3-yl)-2-(1-(4-fluorophenyl)ethoxy)phenyl)-1,1-difluoromethanesulfonamide]"
0.1 to 10,> 10,> 10,"C[C@H](Oc1cc(-c2nn(C)c3c(-c4cnn5c4CN(C)CC5)cnc(N)c23)ccc1NS(=O)(=O)C(F)F)c1ccc(F)cc1 [Compound 91, (S)—N-(4-(4-amino-1-methyl-7-(5-methyl-4,5,6,7-tetrahydropyrazolo[1,5-a]pyrazin-3-yl)-1H-pyrazolo[4,3-c]pyridin-3-yl)-2-(1-(4-fluorophenyl)ethoxy)phenyl)-1,1-difluoromethanesulfonamide]"
< 0.001,> 10,> 10,"C[C@H](Oc1cc(-c2nn(C)c3c(-c4cnc(N5CCOCC5)nc4)cnc(N)c23)ccc1NS(=O)(=O)C(F)F)c1ccc(F)cc1 [Compound 110, (S)-N-(4-(4-amino-1-methyl-7-(2-morpholinopyrimidin-5-yl)-1H-pyrazolo[4,3-c]pyridin-3-yl)-2-(1-(4-fluorophenyl)ethoxy)phenyl)-1,1-difluoromethanesulfonamide]"
0.001 to 0.1,> 10,> 10,"COC[C@@H](Oc1cc(-c2nn(C)c3c(-c4cnn(C5CCOCC5)c4)cnc(N)c23)ccc1NS(=O)(=O)C(F)F)c1ccc(F)cc1 [Compound 112, (S)—N-(4-(4-amino-1-methyl-7-(1-(tetrahydro-2H-pyran-4-yl)-1H-pyrazol-4-yl)-1H-pyrazolo[4,3-c]pyridin-3-yl)-2-(1-(4-fluorophenyl)-2-methoxyethoxy)phenyl)-1,1-difluoromethanesulfonamide]"
0.001 to 0.1,> 10,> 10,"C[C@H](Oc1cc(-c2nn(C)c3c(-c4cnc(N5CCCC5)nc4)cnc(N)c23)ccc1NS(=O)(=O)C(F)F)c1ccc(F)cc1 [Compound 114, (S)-N-(4-(4-amino-1-methyl-7-(2-(pyrrolidin-1-yl)pyrimidin-5-yl)-1H-pyrazolo[4,3-c]pyridin-3-yl)-2-(1-(4-fluorophenyl)ethoxy)phenyl)-1,1-difluoromethanesulfonamide]"
0.001 to 0.1,–,–,"C[C@H](Oc1cc(-c2nn(C)c3c(-c4cnn(C5CCOCC5)c4)cnc(N)c23)ccc1NS(=O)(=O)Cc1ccccc1)c1ccc(F)cc1 [Compound 127, (S)-N-(4-(4-amino-1-methyl-7-(1-(tetrahydro-2H-pyran-4-yl)-1H-pyrazol-4-yl)-1H-pyrazolo[4,3-c]pyridin-3-yl)-2-(1-(4-fluorophenyl)ethoxy)phenyl)-1-phenylmethanesulfonamide]"
